The supplement of paper PMC10307832

Columns and labels:
Assay in all cases: relative viability (nuclei count vs DMSO), 5 days (fraction); higher = more cells survive
SGI-1776 + AZD7762 = compound: CN1CCC(CNc2ccc3ncc(-c4cccc(OC(F)(F)F)c4)n3n2)CC1 [SGI-1776] + NC(=O)Nc1cc(-c2cccc(F)c2)sc1C(=O)N[C@H]1CCCNC1 [AZD7762] (partner 0.2 µM)
Procedure, shortened: (§1)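 Relative viability is defined as nuclei in treated wells over nuclei in vehicle wells. Duplicate plates were run and medians reported. Lung cancer cell lines in 1536-well plates were dosed by pin tool one day after seeding, with one drug or with a fixed anchor-drug dose plus five library-drug doses (not always all listed) in √10 steps, and nuclei were counted after 5 days.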

SGI-1776 + Tozasertib = compound: CN1CCC(CNc2ccc3ncc(-c4cccc(OC(F)(F)F)c4)n3n2)CC1 [SGI-1776] + Cc1cc(Nc2cc(N3CCN(C)CC3)nc(Sc3ccc(NC(=O)C4CC4)cc3)n2)n[nH]1 [Tozasertib] (partner 0.1 µM)
Procedure, shortened: as §1

[1] = compound: C1COCCN1C2=NC(=NC3=C2OC4=C3C=CC=N4)C5=CC(=CC=C5)NC(=O)C6=CN=C(C=C6)N + CCNC(=O)c1noc(-c2cc(C(C)C)c(O)cc2O)c1-c1ccc(CN2CCOCC2)cc1 [Luminespib] (partner 0.01 µM)
Procedure, shortened: as §1

SGI-1776 + Phenformin = compound: CN1CCC(CNc2ccc3ncc(-c4cccc(OC(F)(F)F)c4)n3n2)CC1 [SGI-1776] + N=C(N)NC(=N)NCCc1ccccc1 [Phenformin] (partner 250 µM)
Procedure, shortened: as §1

Cell Line	relative viability (SGI-1776 + AZD7762; first compound 0.08 µM)	relative viability (SGI-1776 + AZD7762; first compound 0.8 µM)	relative viability (SGI-1776 + AZD7762; first compound 2.53 µM)	relative viability (SGI-1776 + AZD7762; first compound 8 µM)	relative viability (SGI-1776 + Tozasertib; first compound 0.08 µM)	relative viability (SGI-1776 + Tozasertib; first compound 0.8 µM)	relative viability (SGI-1776 + Tozasertib; first compound 2.53 µM)	relative viability (SGI-1776 + Tozasertib; first compound 8 µM)	relative viability ([1]; first compound 0.02 µM)	relative viability ([1]; first compound 0.06325 µM)	relative viability ([1]; first compound 0.2 µM)	relative viability ([1]; first compound 0.6325 µM)	relative viability ([1]; first compound 2 µM)	relative viability (SGI-1776 + Phenformin; first compound 0.08 µM)	relative viability (SGI-1776 + Phenformin; first compound 0.8 µM)	relative viability (SGI-1776 + Phenformin; first compound 2.53 µM)	relative viability (SGI-1776 + Phenformin; first compound 8 µM)
201T	0.581	0.604	0.644	0.657	0.982	0.901	0.549	0.366	1.13	1	1.05	0.985	0.827	0.442	0.461	0.415	0.471
A549														0.122	0.148	0.11	0.155
A-427	0.685	0.681	0.686	0.627	0.19	0.212	0.141	0.158	0.812	0.951	0.982	0.872	0.544	0.258	0.277	0.275	0.209
ABC-1	0.801	0.648	0.85	0.83	0.175	0.134	0.173	0.175	0.383	1.28	0.473	0.739	0.475	0.23	0.24	0.219	0.236
BEN	0.829	0.735	0.673	0.524	0.523	0.599	0.62	0.453	0.479	0.312	0.313	0.328	0.42	0.282	0.269	0.303	0.306
CAL-12T	0.739	0.667	0.567	0.654	0.3	0.216	0.234	0.205	0.465	0.602	0.21	0.418	0.267	0.558	0.647	0.531	0.558
COR-L23					0.204	0.156	0.115	0.11	0.761	0.99	0.89	0.667	0.467	0.488	0.479	0.444	0.358
COR-L 105					0.334	0.286	0.352	0.318	0.975	0.682	0.677	0.674	0.472	0.559	0.512	0.452	0.315
ChaGo-K-1	0.892	0.875	0.912	0.859	0.242	0.22	0.223	0.177	0.635	0.582	0.513	0.526	0.518	0.491	0.526	0.458	0.408
EKVX	0.699	0.713	0.638	0.646	0.4	0.398	0.307	0.235	0.885	0.859	0.723	0.755	0.664	0.237	0.241	0.24	0.241
EMC-BAC-2	1.12	1.16	1.09	0.928	0.285	0.257	0.212	0.224	1.25	1.32	1.08	1.03	0.648	0.517	0.475	0.469	0.419
EPLC-272H	0.188	0.224	0.364	0.252	0.326	0.194	0.194	0.175	0.242	0.588	0.401	0.271	0.33	0.261	0.326	0.352	0.246
H3255	1.05	0.899	0.939	0.728	0.574	0.825	0.625	0.277	0.79	0.851	0.689	1.03	0.9	0.372	0.391	0.331	0.325
HARA	0.345	0.306	0.292	0.218	0.18	0.101	0.0992	0.0856	0.562	0.762	0.843	0.79	0.335	0.532	0.337	0.354	0.318
HCC-15	1.05	1.12	1.34	1.21	0.386	0.312	0.118	0.112	0.33	0.251	0.292	0.234	0.242	0.45	0.417	0.372	0.343
HCC-44	1.07	0.969	1	0.95	0.904	0.491	0.336	0.246	0.99	1.17	1.05	1.22	0.687	0.197	0.174	0.151	0.125
HCC-78	0.665	0.726	0.579	0.538	0.466	0.318	0.41	0.308						0.779	0.775	0.695	0.592
HCC-366	0.248	0.263	0.298	0.26	0.115	0.0741	0.0957	0.0418						0.61	0.527	0.564	0.431
HCC-827	0.25	0.26	0.241	0.146	0.448	0.369	0.422	0.359	0.634	0.557	0.65	0.586	0.456	0.412	0.424	0.459	0.301

Cell Line	relative viability (SGI-1776 + AZD7762; first compound 0.08 µM)	relative viability (SGI-1776 + AZD7762; first compound 0.8 µM)	relative viability (SGI-1776 + AZD7762; first compound 2.53 µM)	relative viability (SGI-1776 + AZD7762; first compound 8 µM)	relative viability (SGI-1776 + Tozasertib; first compound 0.08 µM)	relative viability (SGI-1776 + Tozasertib; first compound 0.8 µM)	relative viability (SGI-1776 + Tozasertib; first compound 2.53 µM)	relative viability (SGI-1776 + Tozasertib; first compound 8 µM)	relative viability ([1]; first compound 0.02 µM)	relative viability ([1]; first compound 0.06325 µM)	relative viability ([1]; first compound 0.2 µM)	relative viability ([1]; first compound 0.6325 µM)	relative viability ([1]; first compound 2 µM)	relative viability (SGI-1776 + Phenformin; first compound 0.08 µM)	relative viability (SGI-1776 + Phenformin; first compound 0.8 µM)	relative viability (SGI-1776 + Phenformin; first compound 2.53 µM)	relative viability (SGI-1776 + Phenformin; first compound 8 µM)
HOP-62	0.84	0.574	0.613	0.646	0.397	0.323	0.241	0.251	0.882	0.983	0.833	0.863	0.44	0.728	0.616	0.704	0.623
LC-2-ad	0.886	0.901	0.771	0.691	0.451	0.309	0.336	0.261	0.857	1.08	1.02	1.06	0.872	0.572	0.554	0.667	0.362
LCLC-97TM1	0.302	0.313	0.204	0.304	0.211	0.188	0.163	0.185	0.787	0.908	0.739	0.826	0.566	0.487	0.434	0.465	0.456
LCLC-103H	0.9	0.776	0.675	0.729	0.495	0.506	0.424	0.211	0.99	1.04	0.89	1.1	0.461	0.371	0.325	0.323	0.281
NCI-H520					0.436	0.442	0.427	0.385	0.224	0.21	0.244	0.233	0.201	0.687	0.597	0.53	0.316
NCI-H661					0.347	0.378	0.336	0.379	0.894	0.961	0.962	0.958	0.52	0.269	0.271	0.306	0.246
NCI-H1563									0.492	0.516	0.542	0.474	0.48	0.694	0.595	0.63	0.548
NCI-H1623					0.436	0.425	0.39	0.45	0.486	0.503	0.461	0.439	0.835	0.611	0.571	0.556	0.626
NCI-H1648	0.668	0.753	0.771	0.658	0.58	0.503	0.451	0.284									
NCI-H1650					0.374	0.287	0.214	0.226	0.186	0.202	0.198	0.233	0.166	0.441	0.368	0.248	0.129
NCI-H1703	0.106	0.114	0.136	0.106													
NCI-H1792	0.587	0.786	0.768	0.438					0.286	0.487	0.405	0.286	0.331	0.335	0.257	0.135	0.257
NCI-H2009					0.646	0.543	0.449	0.387	1.07	1.07	0.999	1.01	0.725	0.407	0.394	0.381	0.3
NCI-H2023					0.325	0.224	0.165	0.148	0.793	0.38	0.477	0.507	0.245	0.379	0.377	0.332	0.282
NCI-H2228					0.253	0.145	0.117	0.148	0.143	0.194	0.209	0.115	0.111	0.345	0.327	0.286	0.164
SK-LU-1					0.397	0.265	0.212	0.207	0.202	0.206	0.218	0.214	0.181	0.528	0.494	0.37	0.322
SK-MES-1					0.964	0.35	0.154	0.133	0.736	0.907	0.816	0.657	0.494	0.643	0.593	0.53	0.493
SW 1573					0.174	0.16	0.174	0.17	0.152	0.232	0.118	0.176	0.3	0.381	0.31	0.356	0.275
